Non-standard residues stand in square brackets, D forms with d. Residues, ends and D or L forms follow the SMILES beside them. Tyr(3-NO2) = N[C@@H](Cc1ccc(O)c([N+](=O)[O-])c1)C(=O)O; 3Pal = N[C@@H](Cc1cccnc1)C(=O)O; hLeu = CC(C)CC[C@H](N)C(=O)O; 2Abz = Nc1ccccc1C(=O)O
Target: T1, Der pI (Dermatophagoides pteronyssinus, UniProt P08176)
T1 construct: tissue SmithKline-Beecham, U.K (crude mite extract); host or cells: crude house dust mite extract
T1 sequence (P08176 99-320): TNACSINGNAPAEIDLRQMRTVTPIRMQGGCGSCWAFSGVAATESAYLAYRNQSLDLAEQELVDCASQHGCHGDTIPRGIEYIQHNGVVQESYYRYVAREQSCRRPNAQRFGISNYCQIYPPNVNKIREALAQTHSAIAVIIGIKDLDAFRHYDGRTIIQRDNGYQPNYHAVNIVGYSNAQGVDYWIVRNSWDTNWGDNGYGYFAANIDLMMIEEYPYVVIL
Assay: Der pI substrate assay with FRET peptides (fluorescence, Km, kcat/Km)
Type: biochemical, house dust mite
Details: purified Der pI; peptides SEQ ID Nos. 1-76; read-out: Measured Km
Procedure: Using the general techniques described above, the following compounds were prepared and assayed as potential substrates against Der pI purified as described above.
Each mixture of 20 compounds in the libraries of the apparatus described herein was screened at a concentration of 1.0 μM per compound in an assay against the cysteinyl protease Der pI.
Plate assays were carried out in 96 well plate format, using 0.1 ug of Der pI per 100 μL assay volume in each well and using 20 μM of the substrate. All assays were performed in Assay Buffer (AB; 50 mM potassium phosphate, pH 8.25 containing 1 mM ethylenediaminetetraacetic acid (EDTA) and 1 mM dithiothreitol (DTT). The Der pI enzyme is pre-activated by addition of DTT and this in incubated at room temperature for 5 min. prior to initiation of the assay. As an example for the screening methodology, each well contains a 5 μL of a 20 μM solution of the test compound in DMSO, 10 μL of a 200 μM aqueous solution of the substrate, 2, and 85 μL of Der pI in AB is added to initiate the reaction. Enzyme activity is monitored by fluorescence using 320 nm for excitation and 420 nm for the emission wavelengths using a Labsystems Fluroskan Ascent machine. Kinetic measurements were carried out using a Hitachi F-4500 Fluorescence Spectrophotometer.

SMILES	Km
CC(C)CC[C@H](NC(=O)[C@H](C)NC(=O)[C@H](Cc1cccnc1)NC(=O)c1ccccc1N)C(=O)N[C@@H](CO)C(=O)N[C@@H](Cc1ccc(O)c([N+](=O)[O-])c1)C(=O)N[C@@H](CC(=O)O)C(N)=O [Abz-3pyr-Ala-hLeu-Ser-Tyr(NO2)-Asp-NH2] (H-[2Abz][3Pal]A[hLeu]S[Tyr(3-NO2)]D-NH2)	> 10 µM
CC(C)CC[C@H](NC(=O)[C@H](C)NC(=O)[C@H](CCCCN)NC(=O)c1ccccc1N)C(=O)N[C@@H](CO)C(=O)N[C@@H](Cc1ccc(O)c([N+](=O)[O-])c1)C(=O)N[C@@H](CC(=O)O)C(N)=O [Abz-Lys-Ala-hLeu-Ser-Tyr(NO2)-Asp-NH2] (H-[2Abz]KA[hLeu]S[Tyr(3-NO2)]D-NH2)	> 15 µM

— patent US6528275B1, “Substrates and inhibitors of proteolytic enzymes” (Peptide Therapeutics Limited, priority 1996, dated 2003)
